The results in this text go back to paper PMC11267380, “USP25 Elevates SHLD2‐Mediated DNA Double‐Strand Break Repair and Regulates Chemoresponse in Cancer” (Advanced Science, 2024).

The subject of experiment [1] is RKO cells. The experiment in a line: CCK8 survival assay, control, USP25 knockdown and SHLD2-depleted RKO cells. The conditions noted are these: 5-Fu (0, 0.1, 0.5, 1, 3 µM) or cisplatin (0, 0.1, 0.5, 1, 2, 5 µM). It is filed as cell-based. As for the experimental part:
For long‐term proliferation, cells were seeded in triplicate in each well of 96‐well plates at a density of 1000 cells per well. After 24 h of culture, the cells were treated with the indicated doses of regents or peptides and incubated at 37 °C for 72 h. Subsequently, the medium was changed to a fresh medium containing cell counting kit‐8 solution (Dojindo, CK04), and the cells were placed in the incubator for an additional 1–2 h. The absorbance was measured at 450 nm using the SpectraMax M5 reader (Molecular Devices).
a) HEK293T cells stably expressing control or USP25 shRNA were untreated and treaded with etopside at the indicated time point. Cells were lysed and lysates was performed with the indicated antibodies. b-c) Representative foci images and quantification of RPA32 (b) and RAD51 (c) were obtained in U2OS cells stably expressing control or USP25 shRNA with or without IR treatment (2Gy). n>80 in each group. d) USP25 was knocked down in ER-AsiSI U2OS cells by shRNA, and cell lysates were analyzed using the indicated antibodies. e) Schematic representation of Taqman qPCR primer design for measurement of DSB% at AsiSI sites located on chromosome1(Chr.1). The primer pairs of DNA resection are across BamHI restriction sites are marked by red arrows. ER-AsiSI U2OS cells stably expressing control and USP25 shRNA were treated with 300 nM 4- hydroxytamoxifen (4-OHT) for 4 h or mock treated and genomic DNA was then extracted and digested with BamHI overnight. The percentages of ssDNA at various distances (364nt, 1754nt and 3564nt) were measured by qPCR. f-h) Control and USP25 knockdown RKO cells transfected short interfering RNAs (siRNA) against SHLD2 were subjected to survival assays for CCK8 assay in response to IR (0, 1,1.5,2,2.5,3Gy), 5-Fu (0, 0.1,0.5,1,3µM) or cisplatin(0, 0.1,0.5,1,2,5µM). Statistical analysis was performed using two-way ANOVA followed by a Turkey’s multiple comparison test (b,c,e,f,g,h) .
(Formazan colour is commonly taken as a measure of viable cells.)

Experiment [2] concerns USP25 and MDC1 BRCT-domain / FHA-domain. Kind of experiment: GST pull-down of USP25 with MDC1 deletions after 5-Fu. It is filed as cell-based, human. The settings on record: 5-Fu (20 uM), HEK293T lysates. As for the experimental part:
Figure 4 Regulation of the DDR signaling by USP25. a) HEK293T cells were left untreated or treated with IR (10 Gy) or 5‐Fu (20 uM). USP25 was immunoprecipitated and immunoblotted with phospho‐SQ/TQ (p‐SQ/TQ). b) HEK293T cells were pretreated with Ku55933 (25 µM) for 2 h followed by treatment with IR(10 Gy). After 1 h, USP25 was immunoprecipitated, left untreated, or treated with phosphatase and immunoblotted with p‐SQ/TQ. c) HEK293T cells transfected with USP25^WT and indicated constructs were left treated with IR(10 Gy). USP25 was immunoprecipitated and immunoblotted with p‐SQ/TQ. d) USP25 knockdowm U2OS cells rescued with USP25WT or USP25T523A were treated with IR (2 Gy), and co‐localization USP25 with γH2AX was detected by immunofluorescence. n>80 in each group. e) HEK293T cells were left untreated or treated with 5‐Fu (20 uM). […] The interaction USP25 and MDC1 deletions was detected. g) HEK293T cells transfected with USP25^WT or USP25^T523A were treated with IR, and cell lysates were incubated with GST or GST‐MDC1‐BRCT in vitro. The interaction USP25 and MDC1‐BRCT was detected. h) Non‐phosphorylated or phosphorylated Thr523 peptide was conjugated to beads and incubated with purified GST‐MDC1‐BRCT domain in buffer. […]

Experiment [3] relates to USP25-MDC1 interaction. Kind of experiment: Co-IP of USP25-MDC1 interaction after DNA damage. It is filed as cell-based. The settings on record: 5-Fu (20 uM), HEK293T and RKO.
Description: USP25 was immunoprecipitated and immunoblotted with p‐SQ/TQ. d) USP25 knockdowm U2OS cells rescued with USP25WT or USP25T523A were treated with IR (2 Gy), and co‐localization USP25 with γH2AX was detected by immunofluorescence. n>80 in each group. e) HEK293T cells were left untreated or treated with 5‐Fu (20 uM). MDC1 was immunoprecipitated and immunoblotted with USP25. f) HEK293T cells transfected with USP25 were treated with 5‐Fu (20 uM), and cell lysates were incubated with GST or GST‐MDC1 deletions in vitro. […] The interaction USP25 and MDC1‐BRCT was detected. h) Non‐phosphorylated or phosphorylated Thr523 peptide was conjugated to beads and incubated with purified GST‐MDC1‐BRCT domain in buffer.
Flag was immunoprecipitated and immunoblotted with indicated antibodies. c-d) RKO cells were left untreated or treated with 5-Fu (20uM)(c) or IR(10Gy)(d). […] The interaction USP25 and MDC1-BRCT was detected.
Experiment [4] has as its system RKO and SW620 cells. Kind of experiment: CCK8 survival assay, USP25 knockdown USP25-high colon cancer cells. It is filed as cell-based. The settings on record: RKO: cisplatin (0, 0.5, 1, 3 µM), 5-Fu (0, 0.1, 0.5, 1, 3 µM), SW620: 5-Fu (0, 0.1, 0.5, 1, 3 µM), 72 h. As for the experimental part:
For long-term proliferation, cells were seeded in triplicate in each well of 96-well plates at a density of 1000 cells per well. After 24 h of culture, the cells were treated with the indicated doses of regents or peptides and incubated at 37 °C for 72 h. Subsequently, the medium was changed to a fresh medium containing cell counting kit-8 solution (Dojindo, CK04), and the cells were placed in the incubator for an additional 1-2 h. […] a) The mRNA expression levels of TRIM25, HECTD3, NEDD4L and WWP2 in human normal colon tissue samples (n=41) and colorectal adenocarcinoma tissue samples (n=286 COAD patients) from the Ualcan database were analyzed. b) The protein expression levels of USP25 were measured in HEK293T cells that stably expressed TRIM25 shRNA. c) NHEJ repair capacity of control or TRIM25 knockdown cells were subjected using a reporter assay. d-g) Immunoblot of USP25 in the RKO cells stably expressing control and USP25 shRNA. […] Statistical analysis was performed using t-test (a) or one-way ANOVA followed by a Turkey's multiple comparison test (c) or two-way ANOVA followed by a Turkey's multiple comparison test ([…]) .

Consider `O=c1[nH]cc(F)c(=O)[nH]1` [5‐Fu, 5‐fluorouracil], for which the “sensitization by USP25 knockdown” value in experiment [1] (Figure S2f-h) was “sensitized cells to IR, 5‐Fu, and cisplatin treatment”. In experiment [1] (SHLD2 siRNA), the “sensitization by USP25 knockdown in SHLD2-depleted cells” value is “didn't further lead cells to sensitize to these treatments”. Also, in experiment [2], the “interaction of MDC1 domains with USP25 after treatment” value is reported as “MDC1 BRCT‐domain but not FHA‐domain interacted with USP25”. Moreover, the “USP25-MDC1 interaction after treatment” value in experiment [3] was “increased following 5‐Fu or IR treatment”. For the same compound, the “sensitization by USP25 knockdown, USP25-high cell lines” value in experiment [4] is “sensitized the cells to IR, cisplatin, and 5‐Fu treatment”.
